Read-outs that look alike come from different tables or passages of the source.
Legend:
Experiment in all cases: MIC (CLSI broth dilution), RGM isolates
Format in all cases: cell-based
[1] = tested on: M. smegmatis group; settings: Mycolicibacterium smegmatis
[2] = tested on: M. immunogenum group
[3] = tested on: M. mucogenium group
[4] = tested on: M. abscessus complex; settings: Mycobacteroides abscessus

Measured: MIC

CC[C@H]1OC(=O)[C@H](C)[C@@H](O[C@H]2C[C@@](C)(OC)[C@@H](O)[C@H](C)O2)[C@H](C)[C@@H](O[C@@H]2O[C@H](C)C[C@H](N(C)C)[C@H]2O)[C@](C)(OC)C[C@@H](C)C(=O)[C@H](C)[C@@H](O)[C@]1(C)O [clarithromycin]
16 µg/mL: [1]; isolate 49, M. goodii, initial reading, generally 3-4 days, read-out: MIC, CLA Initial
2 µg/mL: [2]; 336 h, isolate 36, M. immunogenum, extended reading, up to/including 14 days, read-out: MIC, CLA Extended | [2]; 336 h, isolate 37, M. immunogenum, extended reading, up to/including 14 days, read-out: MIC, CLA Extended | [2]; 336 h, isolate 38, M. immunogenum, extended reading, up to/including 14 days, read-out: MIC, CLA Extended | [4]; 336 h, isolate 2, MAB30, extended reading, up to/including 14 days, read-out: MIC, CLA Extended | [4]; 336 h, isolate 3, MAB30, extended reading, up to/including 14 days, read-out: MIC, CLA Extended | [4]; 336 h, isolate 4, massiliense, extended reading, up to/including 14 days, read-out: MIC, CLA Extended
32 µg/mL: [4]; 264 h, isolate 10, Type 1 abscessus, extended reading (11 d), read-out: MIC, CLA Extended
0.25 µg/mL: [2]; isolate 35, M. immunogenum, initial reading, generally 3-4 days, read-out: MIC, CLA Initial | [3]; isolate 40, M. mucogenicum, initial reading, generally 3-4 days, read-out: MIC, CLA Initial | [3]; isolate 43, M. phocaicum, initial reading, generally 3-4 days, read-out: MIC, CLA Initial | [3]; isolate 44, M. phocaicum, initial reading, generally 3-4 days, read-out: MIC, CLA Initial | [3]; isolate 45, M. phocaicum, initial reading, generally 3-4 days, read-out: MIC, CLA Initial | [3]; isolate 47, M. phocaicum, initial reading, generally 3-4 days, read-out: MIC, CLA Initial
≤ 0.06 µg/mL: [3]; isolate 39, M. mucogenicum, initial reading, generally 3-4 days, read-out: MIC, CLA Initial | [3]; isolate 42, M. mucogenicum, initial reading, generally 3-4 days, read-out: MIC, CLA Initial | [3]; isolate 46, M. phocaicum, initial reading, generally 3-4 days, read-out: MIC, CLA Initial | [4]; 336 h, isolate 5, massiliense/subsp. abs hybrid, extended reading, up to/including 14 days, read-out: MIC, CLA Extended | [4]; isolate 1, MAB30, initial reading, generally 3-4 days, read-out: MIC, CLA Initial | [4]; isolate 2, MAB30, initial reading, generally 3-4 days, read-out: MIC, CLA Initial
0.12 µg/mL: [2]; isolate 36, M. immunogenum, initial reading, generally 3-4 days, read-out: MIC, CLA Initial | [3]; 336 h, isolate 39, M. mucogenicum, extended reading, up to/including 14 days, read-out: MIC, CLA Extended | [3]; 336 h, isolate 42, M. mucogenicum, extended reading, up to/including 14 days, read-out: MIC, CLA Extended | [3]; 336 h, isolate 46, M. phocaicum, extended reading, up to/including 14 days, read-out: MIC, CLA Extended | [3]; isolate 48, M. phocaicum, initial reading, generally 3-4 days, read-out: MIC, CLA Initial | [4]; isolate 4, massiliense, initial reading, generally 3-4 days, read-out: MIC, CLA Initial
0.5 µg/mL: [2]; isolate 38, M. immunogenum, initial reading, generally 3-4 days, read-out: MIC, CLA Initial | [3]; 336 h, isolate 47, M. phocaicum, extended reading, up to/including 14 days, read-out: MIC, CLA Extended | [3]; 336 h, isolate 48, M. phocaicum, extended reading, up to/including 14 days, read-out: MIC, CLA Extended | [3]; isolate 41, M. mucogenicum, initial reading, generally 3-4 days, read-out: MIC, CLA Initial | [4]; isolate 3, MAB30, initial reading, generally 3-4 days, read-out: MIC, CLA Initial
> 32 µg/mL: [1]; 144 h, isolate 49, M. goodii, extended reading (6 d), read-out: MIC, CLA Extended | [1]; isolate 50, M. wolinskyi, initial reading, generally 3-4 days, read-out: MIC, CLA Initial | [4]; 168 h, isolate 12, Type 6 abscessus, extended reading (7 d), read-out: MIC, CLA Extended | [4]; 240 h, isolate 7, Type 1 abscessus, extended reading (10 d), read-out: MIC, CLA Extended | [4]; 240 h, isolate 9, Type 1 abscessus, extended reading (10 d), read-out: MIC, CLA Extended | [4]; 240 h, isolate 11, Type 6 abscessus, extended reading (10 d), read-out: MIC, CLA Extended | [4]; 240 h, isolate 15, Type 7 abscessus, extended reading (10 d), read-out: MIC, CLA Extended | [4]; 240 h, isolate 16, Type 7 abscessus, extended reading (10 d), read-out: MIC, CLA Extended | [4]; 240 h, isolate 17, Type 8 abscessus, extended reading (10 d), read-out: MIC, CLA Extended | [4]; 264 h, isolate 8, Type 1 abscessus, extended reading (11 d), read-out: MIC, CLA Extended | [4]; 264 h, isolate 13, Type 6 abscessus, extended reading (11 d), read-out: MIC, CLA Extended | [4]; 336 h, isolate 14, Type 6 abscessus, extended reading (14 d), read-out: MIC, CLA Extended
1 µg/mL: [2]; 336 h, isolate 35, M. immunogenum, extended reading, up to/including 14 days, read-out: MIC, CLA Extended | [2]; isolate 37, M. immunogenum, initial reading, generally 3-4 days, read-out: MIC, CLA Initial | [3]; 336 h, isolate 40, M. mucogenicum, extended reading, up to/including 14 days, read-out: MIC, CLA Extended | [3]; 336 h, isolate 41, M. mucogenicum, extended reading, up to/including 14 days, read-out: MIC, CLA Extended | [3]; 336 h, isolate 43, M. phocaicum, extended reading, up to/including 14 days, read-out: MIC, CLA Extended | [3]; 336 h, isolate 44, M. phocaicum, extended reading, up to/including 14 days, read-out: MIC, CLA Extended | [3]; 336 h, isolate 45, M. phocaicum, extended reading, up to/including 14 days, read-out: MIC, CLA Extended | [4]; 336 h, isolate 1, MAB30, extended reading, up to/including 14 days, read-out: MIC, CLA Extended

Reference: US20250332178A1, “METHODS OF TREATING MYCOBACTERIAL INFECTIONS USING TETRACYCLINE COMPOUNDS” (priority 2018, published 2025)
